Results taken from PMC6397271 (Scientific Reports, 2019).
In brackets after ≈: the same amount, converted by molar mass. Read-outs that look alike come from different tables or passages of the source.

Experiments:
Assay in all cases: microbe, parasite or virus in culture
[1] = test system: S. aureus MRSA hetero-VISA 6347; assay type: cell-based, Staphylococcus aureus; details: for MIC: raw MIC
Excerpt: (§1) Three bacterial strains of MRSA (N315, 12673, 6347) and two of Enterococcus spp. (E. faecium, E. faecalis) were used. With respect to MRSA, N315 represented a reference Van-susceptible strain (GenBank GCA_00000645.1) isolated from a patient while 12673 (Van-intermediately susceptible) and 6347 (a h-VISA which appears at frequency of <10^−5 to 10^−6 is composed of two subpopulations of bacteria: one susceptible and one intermediately resistant)[38] were clinical strains obtained from patients of The Clinical University Centre of Gdańsk (UCK). […] The clinical strain isolates originated from the collection of the Department of Pharmaceutical Technology and Biochemistry, Faculty of Chemistry, Gdańsk University of Technology.
(§2) The strains were grown in Mueller-Hinton broth (MH cation-adjusted, Becton Dickinson) or Brain Heart Infusion broth (BHI, Becton Dickinson), respectively. The cultivation was carried out in an aerobic atmosphere at 37 °C for 24 hours and, afterwards, the bacterial cultures were diluted in geometric progression with a proper broth. Next, 100 µl of each dilution was inoculated in an agar plate and incubated at 37 °C for 24 h. The next procedures included determination of Colony Forming Units (CFU)/ml and minimal inhibitory concentration (MIC) of the compounds in question. The latter procedure was carried out according to the microbroth dilution technique using 96-well plates. The MICs were evaluated by using the metabolic assay based on the resazurin dye. The assay was performed in triplicates.

[2] = test system: S. aureus MRSA N315; assay type: cell-based, Staphylococcus aureus; details: for MIC: raw MIC
Excerpt: as §1, §2

[3] = test system: S. aureus MRSA 12673; assay type: cell-based, Staphylococcus aureus; details: for MIC: raw MIC
Excerpt: as §1, §2

[4] = test system: Enterococcus faecalis 3937158; assay type: cell-based
Excerpt: as §1, §2

[5] = test system: Enterococcus faecium 3934825; assay type: cell-based; details: for MIC: raw MIC
Excerpt: as §1, §2

[6] = first block, test a, repetition 1, read-out: MIC1a
[7] = first block, test a, repetition 2, read-out: MIC2a
[8] = first block, test a, repetition 3, read-out: MIC3a
[9] = first block, test b, repetition 1, read-out: MIC1b
[10] = first block, test b, repetition 2, read-out: MIC2b
[11] = first block, test b, repetition 3, read-out: MIC3b
[12] = test a, repetition 1, read-out: MIC1a
[13] = test a, repetition 2, read-out: MIC2a
[14] = test a, repetition 3, read-out: MIC3a
[15] = test b, repetition 1, read-out: MIC1b
[16] = test b, repetition 2, read-out: MIC2b
[17] = test b, repetition 3, read-out: MIC3b
[18] = same test as μM value, mean ± SD

CC[C@H](C)[C@H](NC(=O)[C@H](CCCCN)NC(=O)[C@H](CCCCN)NC(=O)[C@H](C)NC(=O)[C@H](CC(C)C)NC(=O)[C@H](C)NC(=O)[C@H](C)NC(=O)[C@H](CC(C)C)NC(=O)[C@H](C)NC(=O)[C@H](CCCCN)NC(=O)[C@H](CC(C)C)NC(=O)[C@H](CC(N)=O)NC(=O)[C@@H](NC(=O)[C@H](CCCCN)NC(=O)CNC(=O)[C@H](CC(C)C)NC(=O)[C@H](CC(C)C)NC(=O)[C@H](Cc1ccc(O)cc1)NC(=O)CNC(=O)[C@H](C)N)[C@@H](C)CC)C(=O)N[C@@H](CC(C)C)C(=O)N[C@@H](Cc1cn(CCOCCOCCOCCOCCC(=O)N[C@@]2(C)C[C@H](O[C@H]3[C@H](Oc4c5cc6cc4Oc4ccc(cc4Cl)[C@@H](O)[C@@H](NC(=O)[C@@H](CC(C)C)NC)C(=O)N[C@@H](CC(N)=O)C(=O)N[C@H]6C(=O)N[C@H]4C(=O)N[C@H](C(=O)N[C@H](C(=O)O)c6cc(O)cc(O)c6-c6cc4ccc6O)[C@H](O)c4ccc(c(Cl)c4)O5)O[C@H](CO)[C@@H](O)[C@@H]3O)O[C@@H](C)[C@H]2O)nn1)C(N)=O [conjugate III, TP10-Ala(PEG4-Van)]
MIC [1, 6]: 1.6 µM (≈ 6.4 µg/mL) | MIC [1, 7]: 0.78 µM (≈ 3.12 µg/mL) | MIC [1, 8]: 0.78 µM (≈ 3.12 µg/mL) | MIC [1, 9]: 1.6 µM (≈ 6.4 µg/mL) | MIC [1, 10]: 1.6 µM (≈ 6.4 µg/mL) | MIC [1, 11]: 1.6 µM (≈ 6.4 µg/mL) | MIC [1, 12]: 6.4 µM (≈ 25.6 µg/mL) | MIC [1, 13]: 3.2 µM (≈ 12.8 µg/mL) | MIC [1, 14]: 3.2 µM (≈ 12.8 µg/mL) | MIC [1, 15]: 6.4 µM (≈ 25.6 µg/mL) | MIC [1, 16]: 6.4 µM (≈ 25.6 µg/mL) | MIC [1, 17]: 6.4 µM (≈ 25.6 µg/mL) | MIC in (μg/ml) [1, 18]: 6.4 ± 1.7 µg/mL (≈ 1.6 µM) | MIC [2, 6]: 12.5 µM (≈ 50 µg/mL) | MIC [2, 7]: 6.25 µM (≈ 25 µg/mL) | MIC [2, 8]: 12.5 µM (≈ 50 µg/mL) | MIC [2, 9]: 12.5 µM (≈ 50 µg/mL) | MIC [2, 10]: 12.5 µM (≈ 50 µg/mL) | MIC [2, 11]: 6.25 µM (≈ 25 µg/mL) | MIC [2, 12]: 50.01 µM (≈ 200 µg/mL) | MIC [2, 13]: 25.01 µM (≈ 100 µg/mL) | MIC [2, 14]: 50.01 µM (≈ 200 µg/mL) | MIC [2, 15]: 50.01 µM (≈ 200 µg/mL) | MIC [2, 16]: 50.01 µM (≈ 200 µg/mL) | MIC [2, 17]: 25.01 µM (≈ 100 µg/mL) | MIC in (μg/ml) [2, 18]: 50.0 ± 12.9 µg/mL (≈ 12.5 µM) | MIC [3, 6]: 0.78 µM (≈ 3.12 µg/mL) | MIC [3, 7]: 1.56 µM (≈ 6.24 µg/mL) | MIC [3, 8]: 0.78 µM (≈ 3.12 µg/mL) | MIC [3, 9]: 0.78 µM (≈ 3.12 µg/mL) | MIC [3, 10]: 1.56 µM (≈ 6.24 µg/mL) | MIC [3, 11]: 0.78 µM (≈ 3.12 µg/mL) | MIC [3, 12]: 3.12 µM (≈ 12.5 µg/mL) | MIC [3, 13]: 6.24 µM (≈ 25 µg/mL) | MIC [3, 14]: 3.12 µM (≈ 12.5 µg/mL) | MIC [3, 15]: 3.12 µM (≈ 12.5 µg/mL) | MIC [3, 16]: 6.24 µM (≈ 25 µg/mL) | MIC [3, 17]: 3.12 µM (≈ 12.5 µg/mL) | MIC in (μg/ml) [3, 18]: 3.1 ± 1.6 µg/mL (≈ 0.775 µM) | MIC ([4]; microbroth dilution, 96-well, resazurin, 37 °C, 24 h, mean ± SD, at least three independent experiments in triplicates): 25.0 ± 5.1 µM (≈ 100 µg/mL) | MIC ([4]; raw MIC, first block, test a, repetition 1, read-out: MIC1a): 25 µM (≈ 100 µg/mL) | MIC ([4]; raw MIC, first block, test a, repetition 2, read-out: MIC2a): 25 µM (≈ 100 µg/mL) | MIC ([4]; raw MIC, first block, test a, repetition 3, read-out: MIC3a): 25 µM (≈ 100 µg/mL) | MIC ([4]; raw MIC, first block, test b, repetition 1, read-out: MIC1b): 12.5 µM (≈ 50 µg/mL) | MIC ([4]; raw MIC, first block, test b, repetition 2, read-out: MIC2b): 25 µM (≈ 100 µg/mL) | MIC ([4]; raw MIC, first block, test b, repetition 3, read-out: MIC3b): 25 µM (≈ 100 µg/mL) | MIC ([4]; raw MIC, test a, repetition 1, read-out: MIC1a): 100.02 µM (≈ 400 µg/mL) | MIC ([4]; raw MIC, test a, repetition 2, read-out: MIC2a): 100.02 µM (≈ 400 µg/mL) | MIC ([4]; raw MIC, test a, repetition 3, read-out: MIC3a): 100.02 µM (≈ 400 µg/mL) | MIC ([4]; raw MIC, test b, repetition 1, read-out: MIC1b): 50.01 µM (≈ 200 µg/mL) | MIC ([4]; raw MIC, test b, repetition 2, read-out: MIC2b): 100.02 µM (≈ 400 µg/mL) | MIC ([4]; raw MIC, test b, repetition 3, read-out: MIC3b): 100.02 µM (≈ 400 µg/mL) | MIC in (μg/ml) [4, 18]: 100.0 ± 20.4 µg/mL (≈ 25 µM) | MIC [5, 6]: 12.5 µM (≈ 50 µg/mL) | MIC [5, 7]: 6.25 µM (≈ 25 µg/mL) | MIC [5, 8]: 12.5 µM (≈ 50 µg/mL) | MIC [5, 9]: 6.25 µM (≈ 25 µg/mL) | MIC [5, 10]: 12.5 µM (≈ 50 µg/mL) | MIC [5, 11]: 12.5 µM (≈ 50 µg/mL) | MIC [5, 12]: 50.01 µM (≈ 200 µg/mL) | MIC [5, 13]: 25.01 µM (≈ 100 µg/mL) | MIC [5, 14]: 50.01 µM (≈ 200 µg/mL) | MIC [5, 15]: 25.01 µM (≈ 100 µg/mL) | MIC [5, 16]: 50.01 µM (≈ 200 µg/mL) | MIC [5, 17]: 50.01 µM (≈ 200 µg/mL) | MIC in (μg/ml) [5, 18]: 50.0 ± 12.9 µg/mL (≈ 12.5 µM)
